Laboratory results as given in patent publication US20170202838A1, “IMMUNOMODULATOR” (TAIHO PHARMACEUTICAL CO., LTD., priority 2015, published 2017).

Legend:
Type in all cases: cell-based
[1] = tested on: human peripheral blood mononuclear cells; assay: Induction of cytokine production in human peripheral blood mononuclear cells, Bio-Plex Pro cytokine assay (Example 7); conditions: 2 days culture, no stimulant (FIG. 9)
Protocol: Human peripheral blood mononuclear cells were introduced into a human complete medium (i.e., RPMI-1640 supplemented with 10% heat-inactivated FBS, 100 U/ml penicillin, and 100 μg/ml streptomycin) to prepare a cell suspension (1×10^5 cells/ml). Compound (I), the EGFR tyrosine kinase inhibitor (i.e., AZD9291 or Erlotinib), or a cytokine-inducing positive control (i.e., Imiquimod) was added to the cell suspension. A control group to which the EGFR tyrosine kinase inhibitor and others were not added was also prepared (i.e., the non-treatment group). The culture solution was cultured in an incubator at 37° C. in the presence of 5% CO2 for 2 days. The culture supernatant was recovered, and various types of cytokines were inspected with the use of the Bio-Plex Pro human cytokine assay kit.

[2] = tested on: human peripheral blood mononuclear cells; assay: Induction of IL-2 production of PHA-M-stimulated human peripheral blood mononuclear cells (Example 2); conditions: PHA-M 5 μg/ml, 3 days, ELISA (FIG. 3)
Protocol: Human peripheral blood mononuclear cells were introduced into a human complete medium (i.e., RPMI-1640 supplemented with 10% heat-inactivated FBS, 100 U/ml penicillin, and 100 μg/ml streptomycin) to prepare a cell suspension (1×10^6 cells/ml). Phytohemagglutinin M (PHA-M) was added thereto to the final concentration of 5 μg/ml, and Compound (I) or an EGFR tyrosine kinase inhibitor (AZD9291) was further added thereto to each final concentration. This culture solution was seeded in a 96-well plate at 200 μl/well and then cultured in an incubator at 37° C. in the presence of 5% CO2 for 3 days. The culture supernatant was recovered, and the concentration of IL-2 therein was measured via ELISA using the anti-hIL-2 antibody.

mouse spleen cells = assay: Excitation of T cell growth, CFSE flow cytometry of CD4- and CD8-positive spleen cells (Example 4); conditions: 0.1 μM, 3 days culture of stimulated spleen cells
Protocol: The mouse spleen was extracted, grinded with glass slides with frosted areas, and then subjected to hemolysis, so as to obtain spleen cells. The spleen cells were suspended in 5 ml of a staining buffer (0.5% BSA, 2 mM EDTA, PBS(-)), and the cells were stained with 5 μM CFSE (5-carboxyfluorescein succinimidyl ester). Thereafter, the stained cells were washed with an ice-cooled complete medium (RPMI-1640). The CFSE-stained spleen cells were introduced into a complete medium (i.e., RPMI-1640 supplemented with 10% heat-inactivated FBS, 100 U/ml penicillin, 100 μg/ml streptomycin, and 55 μM 2-mercaptoethanol) to prepare a cell suspension (1×10^6 cells/ml), the anti-CD3 antibody and the anti-CD28 antibody were added at 1 μg/ml and 1 μg/ml, respectively, and Compound (I) adjusted to various concentrations or the EGFR tyrosine kinase inhibitor (i.e., AZD09291, Erlotinib, Co1686 (Rociletinib), Ibrutinib, Sunitinib, or Dasatinib) was added at 0.1 μM. […] These culture solutions were seeded in a 96-well plate at 200 μl/well and then cultured in an incubator at 37° C. in the presence of 5% CO2 for 3 days. The cells were recovered and stained with the anti-CD4 antibody and the anti-CD8 antibody. The amounts of CFSE in CD4- and CD8-positive cells were analyzed via flow cytometry.
Once CFSE is incorporated into a cell, the amount thereof is kept constant in the cell. Since the amount of CFSE per cell decreases by half upon cell division, according to flow cytometric analysis, the intensity of CFSE staining is attenuated and is shifted toward left (i.e., lower level) in the chart, as cell division proceeds. […] In the case of the samples to which other types of EGFR tyrosine kinase inhibitors had been added, in contrast, no such activity for enhancing the cell growth was observed.

With `C=CC(=O)Nc1cc(Nc2nccc(-c3cn(C)c4ccccc34)n2)c(OC)cc1N(C)CCN(C)C` [AZD9291, reference compound] the “cytokine concentrations relative to the non-treatment group” value [1] was “such induction was not observed” and the “concentration of IL-2 produced by human peripheral blood mononuclear cells in the culture supernatant” value [2] was “substantially no activity for inducing IL-2 production”.
In the case of `Cc1nc(Nc2ncc(C(=O)Nc3c(C)cccc3Cl)s2)cc(N2CCN(CCO)CC2)n1` [Dasatinib, reference compound], the cell death (mouse spleen cells) is reported as “cell death was induced”.
With `C#Cc1cccc(Nc2ncnc3cc(OCCOC)c(OCCOC)cc23)c1` [Erlotinib] the “cytokine concentrations relative to the non-treatment group” value [1] was “such induction was not observed”.
